Several values for one entry are separate records, joined by “and”; a condition that tells them apart may be missing. Identical values can stand only once. Like-named read-outs stand apart in the source and are kept apart here.

By Hill coefficient is commonly meant a measure of the steepness of the concentration-response curve.

On the set-up of data set [1]: method as in FDA report by Vertex Pharmaceuticals Incorporated. The conditions noted are these: patients, oral, ref FDA report by Vertex Pharmaceuticals Incorporated, cited from earlier work.
In data set [2] the target is T1, WT CFTR (Homo sapiens, UniProt P13569).
T1 construct: expressed in transfected cells; host or cells: Xenopus laevis oocytes injected with cRNA transcribed from pGEMHE-CFTR
T1 sequence (P13569 whole entry): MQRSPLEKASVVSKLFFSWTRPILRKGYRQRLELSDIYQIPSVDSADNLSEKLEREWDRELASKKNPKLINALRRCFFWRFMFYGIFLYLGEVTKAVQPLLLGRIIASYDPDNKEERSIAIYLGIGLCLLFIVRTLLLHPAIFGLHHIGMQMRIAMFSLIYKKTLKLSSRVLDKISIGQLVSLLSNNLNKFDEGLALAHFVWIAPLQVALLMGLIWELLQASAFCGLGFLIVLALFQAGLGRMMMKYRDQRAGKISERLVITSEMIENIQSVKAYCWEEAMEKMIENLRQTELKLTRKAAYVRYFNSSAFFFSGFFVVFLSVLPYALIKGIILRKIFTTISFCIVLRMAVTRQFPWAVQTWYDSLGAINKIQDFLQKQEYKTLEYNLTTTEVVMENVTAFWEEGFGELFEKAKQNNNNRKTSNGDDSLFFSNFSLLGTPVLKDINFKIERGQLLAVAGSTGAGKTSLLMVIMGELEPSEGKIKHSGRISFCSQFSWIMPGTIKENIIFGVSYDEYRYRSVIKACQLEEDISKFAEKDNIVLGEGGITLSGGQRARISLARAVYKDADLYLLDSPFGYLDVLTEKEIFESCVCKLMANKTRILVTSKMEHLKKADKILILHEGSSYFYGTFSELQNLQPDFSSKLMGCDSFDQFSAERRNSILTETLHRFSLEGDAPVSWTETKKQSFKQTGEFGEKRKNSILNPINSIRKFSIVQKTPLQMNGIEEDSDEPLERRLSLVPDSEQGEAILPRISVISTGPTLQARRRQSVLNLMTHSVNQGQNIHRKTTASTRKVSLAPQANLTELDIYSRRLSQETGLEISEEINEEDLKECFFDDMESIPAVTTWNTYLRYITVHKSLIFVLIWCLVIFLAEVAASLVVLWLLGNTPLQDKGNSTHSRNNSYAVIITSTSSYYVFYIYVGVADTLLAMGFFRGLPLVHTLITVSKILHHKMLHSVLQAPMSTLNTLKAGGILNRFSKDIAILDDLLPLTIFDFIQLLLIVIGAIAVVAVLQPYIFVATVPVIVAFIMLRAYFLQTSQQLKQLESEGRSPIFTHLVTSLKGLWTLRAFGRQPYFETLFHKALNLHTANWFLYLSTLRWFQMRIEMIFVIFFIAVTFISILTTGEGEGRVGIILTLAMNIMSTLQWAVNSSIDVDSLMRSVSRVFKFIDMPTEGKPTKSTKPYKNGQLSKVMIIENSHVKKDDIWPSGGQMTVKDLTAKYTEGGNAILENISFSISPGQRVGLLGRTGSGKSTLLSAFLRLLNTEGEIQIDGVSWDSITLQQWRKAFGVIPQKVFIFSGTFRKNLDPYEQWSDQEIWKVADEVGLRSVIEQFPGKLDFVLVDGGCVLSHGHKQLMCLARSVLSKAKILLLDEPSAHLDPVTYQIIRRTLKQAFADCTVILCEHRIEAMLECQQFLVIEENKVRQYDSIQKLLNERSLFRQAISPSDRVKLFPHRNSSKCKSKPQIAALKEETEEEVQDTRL
The data set is described as follows: Single-channel recording in excised inside-out patches, kinetic analysis of microscopic patches. The class given is biochemical. How it is done:
(§1) Patch pipette solution contained (in mM): 136 NMDG-Cl, 2 MgCl2, 5 HEPES, pH = 7.4 with NMDG. Bath solution contained (in mM): 134 NMDG-Cl, 2 MgCl2, 5 HEPES, 0.5 EGTA, pH = 7.1 with NMDG. MgATP (2 mM) was added from a 400 mM aqueous stock solution (pH = 7.1 with NMDG). Before each experiment 300 nM catalytic subunit of PKA (Sigma-Aldrich Kft., Budapest, Hungary) was applied for ~1 min to phosphorylate CFTR channels. Vx-770 (Selleck Chemicals) was diluted into the bath solution either from a ‘1x saturated’ aqueous stock solution (see above, concentration ~62 nM), or from a commercially obtained 10 mM stock dissolved in DMSO (Selleck Chemicals). Following patch excision the patch pipette was moved into a flow chamber, and recordings were done under continuous superfusion of the cytosolic patch surface. Solution compositions were exchanged using computer-driven electronic valves (solution exchange time constant <50 ms). After each recording day perfusion tubings were extensively washed with distilled water. Although supersaturated solutions of Vx-770 were not employed here, any perfusion tubing that had ever been in contact with a given concentration of Vx-770 was subsequently used only for solutions that contained the same, or higher, concentrations of the drug. After every 5–6 experimental days the entire perfusion system was replaced. Currents were recorded at 25°C, at a membrane potential of −40 mV, digitized at 10 kHz, Gaussian-filtered at 2 kHz, and recorded to disk (Axopatch 200B, Digidata 1322A, Pclamp9 (Molecular Devices, RRID: SCR_011323)). For display purposes, currents are shown filtered at 10 Hz and sampled at 20 Hz, and expanded single-channel traces (Figure 2b, Figure 4d) are shown filtered at 50 Hz and sampled at 250 Hz.
Segments of current recording originating from 1 to 7 active channels were digitally filtered at 50 Hz, and idealized by half-amplitude threshold crossing. Steady-state open probabilities in 2 mM ATP, before or during application of Vx-770 or after its removal (Figure 2c), were calculated from the events lists as the time-average of the fraction of open channels. A closed-open-blocked (C-O-B) kinetic scheme, which separates brief (~10 ms) flickery closures (to state B) from long (~1 s) interburst closures (to state C), was fitted by maximum likelihood to the set of dwell-time histograms for all conductance levels, to obtain microscopic transition rates rCO, rOC, rOB, and rBO, while accounting for a fixed dead time of 6 ms ([Csanády, 2000]). The software is freely available upon request. Mean burst (τb) and interburst (τib) durations were calculated as τb=(1/rOC)(1 + rOB/rBO) and τib=1/rCO, and channel opening and closing rates (Figure 2c) defined as 1/τib and 1/τb, respectively. […]

Data set [3] addresses T1, WT CFTR. The experiment in a line: Macroscopic current recording in excised inside-out patches from Xenopus laevis oocytes. The class given is biochemical. The conditions noted are these: for EC50: 2 mM ATP, 25°C, read-out: K0.5 for current stimulation.
Source text: We reasoned that this circumstance might explain some of the puzzling features of the drug, such as CFTR channel inactivation observed in some cases ([Cholon et al., 2014]), as well as apparent irreversibility of drug effects ([Jih and Hwang, 2013]; [Lin et al., 2016]; [Yeh et al., 2015]; [Yeh et al., 2017]; [Wang et al., 2014]; [Wang et al., 2018]). To investigate stability and reversibility of Vx-770 effects in a concentration range that can be achieved in the human body during oral drug administration, we tested the effects of our 1x saturated Vx-770 solution and its dilutions in inside-out patches excised from Xenopus laevis oocytes expressing WT or mutant human CFTR channels.
as §1
Vx-770 was applied after currents elicited by 2 mM ATP had stabilized. To allow for full development of its potentiator effect, Vx-770 was superfused until the current reached steady state which, for low nanomolar Vx-770, required up to 5–6 min. After full stimulation, Vx-770 was washed off for at least 5 min to allow the current to decline to a post-drug steady state. Fractional current stimulation by Vx-770 (I/Icontrol) was calculated as the mean steady current in the presence of the drug, divided by the average of the pre- and post-drug mean steady currents. Dose response curves (Figure 3c,f) were least-squares fitted to the modified Hill equation I/Icontrol=(K0.5^n+(Imax/Icontrol)[Vx-770]^n)/(K0.5^n+[Vx-770]^n), with Imax/Icontrol, K0.5, and n as free parameters.
To obtain apparent deactivation rates, current decay time courses following Vx-770 removal were fitted by single exponentials using least squares, and deactivation rates defined as the inverse of the decay time constant (1/τoff; Figure 4c). To obtain apparent activation rates, current activation time courses upon Vx-770 addition were fitted to an empirical three-step kinetic scheme S1→S2→S3→S4. Compound states S1-S4 in this scheme are not interpreted as channel conformational states, but rather as states of the entire system (aqueous solution +patch membrane leaflets + channels), and could reflect various stages of drug distribution among those compartments. […]

Where [4] appears, read: single channel, 0.05x saturated (~3 nM) Vx-770.
Setting [5] is: diluted from 10 mM DMSO-based stock.

In the case of `CC(C)(C)c1cc(C(C)(C)C)c(NC(=O)c2c[nH]c3ccccc3c2=O)cc1O` [Vx-770, ivacaftor], the peak plasma concentration in data set [1] (twice daily 150 mg (therapeutic)) was ~ 4 μM; in data set [1] (twice daily 450 mg (supratherapeutic)), greater than 10 µM. The “stimulation of open probability” value at WT CFTR [2] (0.05x saturated (~3 nM) Vx-770 (20-fold dilution of 1x stock), 2 mM ATP) is given as ~ 4 fold. In addition, on WT CFTR [2] (following washout of 0.05x saturated Vx-770), the “reversibility of effects on channel gating” value is given as “fully reversible”. Further, the “time of switch back to low-activity gating after drug removal” value at WT CFTR [2] (setting [4]) is ~ 5 min. For the same molecule, the “time of switch from low- to high-activity gating after initiation of drug exposure” value on WT CFTR [2] (setting [4]) was ~ 3 min. Besides, on WT CFTR [3] (0.01x saturated Vx-770 (assigned by b20: slower at low concentration), Figure 4a), the “apparent activation time constant τ*” value was 155 s. In addition, at WT CFTR [3] (1x saturated (~62 nM) Vx-770, 2 mM ATP, prephosphorylated channels, -40 mV), the current stimulation was ~ 4 fold. For the same molecule, the “time constant τ of current decline following drug removal” value at WT CFTR [3] (after 1x saturated (~62 nM) Vx-770, Figure 2a) is listed as 145 s; on WT CFTR [3] (after 1x saturated Vx-770) it was ~ 2 min. Also, the Hill coefficient at WT CFTR [3] (setting [5]) is 1.32±0.47; on WT CFTR [3] (diluted from 1x saturated aqueous stock) it was 1.31±0.65. For the same molecule, the EC50 at WT CFTR [3] (setting [5]) amounted to 0.49 ± 0.15 nM; at WT CFTR [3] (diluted from 1x saturated aqueous stock, assuming 62 nM), 0.47 ± 0.12 nM. Moreover, the “delay of onset of current stimulation” value at WT CFTR [3] (subnanomolar/low nanomolar aqueous drug concentrations) is on record as no more than 1 min. Also, at WT CFTR [3] (upon removal of 1x saturated Vx-770), the “reversibility of Vx-770 effects” value is on record as “full reversibility”. At WT CFTR [3] (versus ~300 nM reported), the “apparent K0.5 lower (affinity higher) than previously reported” value was ~ 600 fold and 600 fold.
